Data published in PMC5218480 (PLoS ONE, 2017).

System: MV-4-11 cells
Assay: Gene expression microarray analysis (Affymetrix PrimeView) and GSEA
Type: cell-based, human
Parameters: RFU PODN (11730768_x_at) / Fold change /veh PODN (11730768_x_at) / RFU LINC00158 (11744669_a_at) / Fold change /veh LINC00158 (11744669_a_at) / RFU DUSP10 (11751237_a_at) / Fold change /veh DUSP10 (11751237_a_at) / RFU ID3 (11757404_x_at) / Fold change /veh ID3 (11757404_x_at) / RFU PLEKHG5 (11737974_s_at) / Fold change /veh PLEKHG5 (11737974_s_at) / RFU LRRC4B (11730491_at) / Fold change /veh LRRC4B (11730491_at) / RFU GIMAP4 (11747438_a_at) / Fold change /veh GIMAP4 (11747438_a_at) / RFU KRT8 (11758183_x_at) / Fold change /veh KRT8 (11758183_x_at) / RFU CNN1 (11734310_a_at) / Fold change /veh CNN1 (11734310_a_at) / RFU VPS37D (11726825_at) / Fold change /veh VPS37D (11726825_at) / RFU C10orf10 (11716522_x_at) / Fold change /veh C10orf10 (11716522_x_at) / RFU KIR2DL2 /// KIR2DL4 /// KIR2DL5A /// KIR2DL5B /// KIR2DS1 /// KIR2DS2 /// KIR2DS3 /// KIR2DS4 /// KIR3DL3 /// KIR3DL3 /// KIR3DS1 (11738374_at) / Fold change /veh KIR2DL2 /// KIR2DL4 /// KIR2DL5A /// KIR2DL5B /// KIR2DS1 /// KIR2DS2 /// KIR2DS3 /// KIR2DS4 /// KIR3DL3 /// KIR3DL3 /// KIR3DS1 (11738374_at) / RFU C1QL1 (11718748_at) / Fold change /veh C1QL1 (11718748_at) / RFU TMPRSS4 (11747572_a_at) / Fold change /veh TMPRSS4 (11747572_a_at) / RFU HAMP (11756126_x_at) / Fold change /veh HAMP (11756126_x_at) / RFU RNFT2 (11725882_a_at) / Fold change /veh RNFT2 (11725882_a_at) / RFU NR4A2 (11747474_a_at) / Fold change /veh NR4A2 (11747474_a_at) / RFU ABCC12 (11746883_a_at) / Fold change /veh ABCC12 (11746883_a_at) / RFU TMEM136 (11760407_x_at) / Fold change /veh TMEM136 (11760407_x_at) / RFU CLDN22 /// WWC2 (11732394_at) / Fold change /veh CLDN22 /// WWC2 (11732394_at) / RFU HLA-DPB1 (11760878_x_at) / Fold change /veh HLA-DPB1 (11760878_x_at) / RFU SPINT1 (11716480_a_at) / Fold change /veh SPINT1 (11716480_a_at) / RFU GAP43 (11754022_s_at) / Fold change /veh GAP43 (11754022_s_at) / RFU A4GNT (11735810_at) / Fold change /veh A4GNT (11735810_at) / RFU PRB3 (11715151_x_at) / Fold change /veh PRB3 (11715151_x_at) / RFU TUBB4B (11761932_at) / Fold change /veh TUBB4B (11761932_at) / RFU CAPN14 (11732068_a_at) / Fold change /veh CAPN14 (11732068_a_at) / RFU TMCC2 (11721928_a_at) / Fold change /veh TMCC2 (11721928_a_at) / RFU IRGQ (11745062_a_at) / Fold change /veh IRGQ (11745062_a_at) / RFU FAM174B (11720279_a_at) / Fold change /veh FAM174B (11720279_a_at) / RFU TMPRSS4 (11748680_a_at) / Fold change /veh TMPRSS4 (11748680_a_at) / RFU FAM212B (11763350_a_at) / Fold change /veh FAM212B (11763350_a_at) / RFU PLEKHG5 (11743358_a_at) / Fold change /veh PLEKHG5 (11743358_a_at) / RFU ZSCAN30 (11745921_a_at) / Fold change /veh ZSCAN30 (11745921_a_at) / RFU CMKLR1 (11741424_a_at) / Fold change /veh CMKLR1 (11741424_a_at) / RFU LOC101060620 /// MAPK8IP1 (11723275_at) / Fold change /veh LOC101060620 /// MAPK8IP1 (11723275_at) / RFU SPTSSB (11747773_x_at) / Fold change /veh SPTSSB (11747773_x_at) / RFU PRSS12 (11739890_at) / Fold change /veh PRSS12 (11739890_at) / RFU BIN1 (11741810_x_at) / Fold change /veh BIN1 (11741810_x_at) / RFU WNT11 (11732464_a_at) / Fold change /veh WNT11 (11732464_a_at) / RFU C10orf10 (11716521_a_at) / Fold change /veh C10orf10 (11716521_a_at) / RFU C5orf56 (11738089_at) / Fold change /veh C5orf56 (11738089_at) / RFU CYB561 (11721691_x_at) / Fold change /veh CYB561 (11721691_x_at) / RFU ANKRD19P (11752326_a_at) / Fold change /veh ANKRD19P (11752326_a_at) / RFU OR2T12 /// OR2T33 /// OR2T8 (11738714_s_at) / Fold change /veh OR2T12 /// OR2T33 /// OR2T8 (11738714_s_at) / RFU VCAN (11748164_a_at) / Fold change /veh VCAN (11748164_a_at) / RFU JSRP1 (11732532_at) / Fold change /veh JSRP1 (11732532_at) / RFU KRTAP10-11 (11738290_x_at) / Fold change /veh KRTAP10-11 (11738290_x_at) / RFU MYO3A (11730013_a_at) / Fold change /veh MYO3A (11730013_a_at) / RFU EBF3 (11725865_a_at) / Fold change /veh EBF3 (11725865_a_at) / RFU CAMK2N1 (11719241_x_at) / Fold change /veh CAMK2N1 (11719241_x_at) / RFU C5orf56 (11738088_a_at) / Fold change /veh C5orf56 (11738088_a_at) / RFU OLFML3 (11715873_a_at) / Fold change /veh OLFML3 (11715873_a_at) / RFU LOC100653217 /// NTM (11731650_a_at) / Fold change /veh LOC100653217 /// NTM (11731650_a_at) / RFU MAPK11 (11762145_a_at) / Fold change /veh MAPK11 (11762145_a_at) / RFU FIZ1 (11724087_x_at) / Fold change /veh FIZ1 (11724087_x_at) / RFU OASL (11726364_x_at) / Fold change /veh OASL (11726364_x_at) / RFU SOX15 (11748057_x_at) / Fold change /veh SOX15 (11748057_x_at) / RFU CD79A (11719716_a_at) / Fold change /veh CD79A (11719716_a_at) / RFU HIST1H1D (11736915_at) / Fold change /veh HIST1H1D (11736915_at) / RFU CASKIN2 (11723855_a_at) / Fold change /veh CASKIN2 (11723855_a_at) / RFU LOC730098 (11760151_x_at) / Fold change /veh LOC730098 (11760151_x_at) / RFU OR4N2 (11742367_at) / Fold change /veh OR4N2 (11742367_at) / RFU PRRT2 (11749266_a_at) / Fold change /veh PRRT2 (11749266_a_at) / RFU SNX32 (11753110_a_at) / Fold change /veh SNX32 (11753110_a_at) / RFU CDHR5 (11726645_a_at) / Fold change /veh CDHR5 (11726645_a_at) / RFU RCAN1 (11760418_a_at) / Fold change /veh RCAN1 (11760418_a_at) / RFU FAM167A (11723789_a_at) / Fold change /veh FAM167A (11723789_a_at) / RFU FAM26E (11764081_at) / Fold change /veh FAM26E (11764081_at) / RFU ISYNA1 (11749810_s_at) / Fold change /veh ISYNA1 (11749810_s_at) / RFU ACY1 (11761880_at) / Fold change /veh ACY1 (11761880_at) / RFU 11764098_at / Fold change /veh 11764098_at / RFU SAMD14 (11745864_x_at) / Fold change /veh SAMD14 (11745864_x_at) / RFU NPB (11741838_a_at) / Fold change /veh NPB (11741838_a_at) / RFU TMPRSS6 (11731388_a_at) / Fold change /veh TMPRSS6 (11731388_a_at) / RFU KRTAP10-2 (11738614_at) / Fold change /veh KRTAP10-2 (11738614_at) / RFU ARHGAP8 /// PRR5-ARHGAP8 (11727945_x_at) / Fold change /veh ARHGAP8 /// PRR5-ARHGAP8 (11727945_x_at) / RFU KRTAP5-7 /// NADSYN1 (11734609_at) / Fold change /veh KRTAP5-7 /// NADSYN1 (11734609_at) / RFU RASL12 (11751679_a_at) / Fold change /veh RASL12 (11751679_a_at) / RFU CDKN2B (11736163_a_at) / Fold change /veh CDKN2B (11736163_a_at) / RFU PRF1 (11729649_at) / Fold change /veh PRF1 (11729649_at) / RFU, ZNF638 /// ZNF638-IT1 / Fold change vs veh, ZNF638 /// ZNF638-IT1 / RFU, PANK3 / Fold change vs veh, PANK3 / RFU, SH3YL1 / Fold change vs veh, SH3YL1 / RFU, ZEB2 / Fold change vs veh, ZEB2 / RFU, NRIP1 / Fold change vs veh, NRIP1 / RFU, PTTG1IP / Fold change vs veh, PTTG1IP / RFU, CAPN2 / Fold change vs veh, CAPN2 / RFU, MED14 / Fold change vs veh, MED14 / RFU, SNORA58 / Fold change vs veh, SNORA58 / RFU, C1orf63 / Fold change vs veh, C1orf63 / RFU, LRRFIP1 / Fold change vs veh, LRRFIP1 / RFU, NDUFAF7 / Fold change vs veh, NDUFAF7 / RFU, SLC12A2 / Fold change vs veh, SLC12A2 / RFU, IBTK / Fold change vs veh, IBTK / RFU, ESF1 / Fold change vs veh, ESF1 / Fold change vs veh, TMEM50B / RFU, TAOK1 / Fold change vs veh, TAOK1 / RFU, ACBD3 / Fold change vs veh, ACBD3 / RFU, TMA16 / Fold change vs veh, TMA16 / RFU, RWDD3 / Fold change vs veh, RWDD3 / RFU, BCAT1 / Fold change vs veh, BCAT1 / RFU, EDEM3 / Fold change vs veh, EDEM3 / RFU, TMEM33 / Fold change vs veh, TMEM33 / RFU, WDR75 / Fold change vs veh, WDR75 / RFU, AHCTF1 / Fold change vs veh, AHCTF1 / RFU, TFRC / Fold change vs veh, TFRC / RFU, ZDHHC17 / Fold change vs veh, ZDHHC17 / RFU, NOM1 / Fold change vs veh, NOM1 / RFU, ARL8B / Fold change vs veh, ARL8B / RFU, ZBTB11 / Fold change vs veh, ZBTB11 / RFU, TAMM41 / Fold change vs veh, TAMM41 / RFU, KIAA1704 /// LOC100996395 / Fold change vs veh, KIAA1704 /// LOC100996395 / RFU, ING1 / Fold change vs veh, ING1 / RFU, TRMT61B / Fold change vs veh, TRMT61B / RFU, FUBP3 / Fold change vs veh, FUBP3 / RFU, TP53 / Fold change vs veh, TP53 / RFU, TNKS2 / Fold change vs veh, TNKS2 / RFU, ZFP14 / Fold change vs veh, ZFP14 / RFU, ACTR2 / Fold change vs veh, ACTR2 / RFU, PPP3R1 / Fold change vs veh, PPP3R1 / RFU, PIK3R1 / Fold change vs veh, PIK3R1 / RFU, HNRNPA1 / Fold change vs veh, HNRNPA1 / RFU, RNF170 / Fold change vs veh, RNF170 / RFU, ZNF28 / Fold change vs veh, ZNF28 / RFU, RNGTT / Fold change vs veh, RNGTT / RFU, OGT / Fold change vs veh, OGT / RFU, BRD1 / Fold change vs veh, BRD1 / RFU, MARS / Fold change vs veh, MARS / RFU, ZNF655 / Fold change vs veh, ZNF655 / RFU, FAHD1 / Fold change vs veh, FAHD1 / RFU, BDP1 / Fold change vs veh, BDP1 / RFU, LRRCC1 / Fold change vs veh, LRRCC1 / RFU, ARID1A / Fold change vs veh, ARID1A / RFU, ZNF146 / Fold change vs veh, ZNF146 / RFU, ZNF330 / Fold change vs veh, ZNF330 / RFU, GPN3 / Fold change vs veh, GPN3 / RFU, C9orf123 / Fold change vs veh, C9orf123 / RFU, N4BP2L2 / Fold change vs veh, N4BP2L2 / RFU, ARFIP1 / Fold change vs veh, ARFIP1 / RFU, FAM179B / Fold change vs veh, FAM179B / RFU, BCL10 / Fold change vs veh, BCL10 / RFU, UHRF1BP1L / Fold change vs veh, UHRF1BP1L / RFU, BET1 / Fold change vs veh, BET1 / RFU, CNOT2 / Fold change vs veh, CNOT2 / RFU, ZNF268 / Fold change vs veh, ZNF268 / Fold change vs veh, ZNF507 / RFU, DGCR2 / Fold change vs veh, DGCR2 / RFU, WDSUB1 / Fold change vs veh, WDSUB1 / Fold change vs veh, HSP90B1 /// MIR3652 / RFU, ADSS / Fold change vs veh, ADSS / RFU, GK / Fold change vs veh, GK / RFU, ZNF148 / Fold change vs veh, ZNF148 / RFU, TAF9 / Fold change vs veh, TAF9 / RFU, SLC1A5 / Fold change vs veh, SLC1A5 / RFU, SLMO2 / Fold change vs veh, SLMO2 / RFU, ABCC4 / Fold change vs veh, ABCC4 / RFU, LOC101060439 /// RAP1B / Fold change vs veh, LOC101060439 /// RAP1B / RFU, RFX7 / Fold change vs veh, RFX7 / RFU, GTPBP10 / Fold change vs veh, GTPBP10 / RFU, CNEP1R1 / Fold change vs veh, CNEP1R1 / RFU, BIVM-ERCC5 /// ERCC5 / Fold change vs veh, BIVM-ERCC5 /// ERCC5 / RFU, ILF3 / Fold change vs veh, ILF3 / RFU 11762660_at / Fold change /veh 11762660_at / RFU VCAN (11757783_s_at) / Fold change /veh VCAN (11757783_s_at) / RFU DDX43 (11728927_at) / Fold change /veh DDX43 (11728927_at) / RFU KRT8 (11758188_x_at) / Fold change /veh KRT8 (11758188_x_at) / RFU NKD1 (11759106_at) / Fold change /veh NKD1 (11759106_at) / RFU SRD5A1 (11742802_a_at) / Fold change /veh SRD5A1 (11742802_a_at) / RFU TPSAB1 /// TPSB2 (11721975_s_at) / Fold change /veh TPSAB1 /// TPSB2 (11721975_s_at) / RFU GSTM3 (11746129_a_at) / Fold change /veh GSTM3 (11746129_a_at) / RFU IL23R (11737362_x_at) / Fold change /veh IL23R (11737362_x_at) / RFU TMEM51 (11727254_a_at) / Fold change /veh TMEM51 (11727254_a_at) / RFU PIWIL2 (11732686_x_at) / Fold change /veh PIWIL2 (11732686_x_at) / RFU ORM1 (11744905_x_at) / Fold change /veh ORM1 (11744905_x_at) / RFU CCDC152 (11743942_at) / Fold change /veh CCDC152 (11743942_at) / RFU ECM1 (11717891_a_at) / Fold change /veh ECM1 (11717891_a_at) / RFU IL23R (11748794_a_at) / Fold change /veh IL23R (11748794_a_at) / RFU TNFAIP8L3 (11732012_x_at) / Fold change /veh TNFAIP8L3 (11732012_x_at) / RFU MBOAT4 (11741988_at) / Fold change /veh MBOAT4 (11741988_at) / RFU 11764193_at / Fold change /veh 11764193_at / RFU TMEM53 (11763286_at) / Fold change /veh TMEM53 (11763286_at) / RFU MAGEB2 (11727129_at) / Fold change /veh MAGEB2 (11727129_at) / RFU TMEM200A (11744735_a_at) / Fold change /veh TMEM200A (11744735_a_at) / RFU CCDC152 (11751479_a_at) / Fold change /veh CCDC152 (11751479_a_at) / RFU FAM211A (11726209_a_at) / Fold change /veh FAM211A (11726209_a_at) / RFU RGS16 (11746705_a_at) / Fold change /veh RGS16 (11746705_a_at) / RFU VCAN (11755009_s_at) / Fold change /veh VCAN (11755009_s_at) / RFU RHOB (11743442_s_at) / Fold change /veh RHOB (11743442_s_at) / RFU RGS16 (11720943_a_at) / Fold change /veh RGS16 (11720943_a_at) / RFU RGS16 (11720944_at) / Fold change /veh RGS16 (11720944_at) / RFU, VPS4B / Fold change vs veh, VPS4B / RFU, CREB1 / Fold change vs veh, CREB1 / RFU, DNAJC13 / Fold change vs veh, DNAJC13 / RFU, GNAQ / Fold change vs veh, GNAQ / RFU, CDK5R1 / Fold change vs veh, CDK5R1 / RFU, ZRANB3 / Fold change vs veh, ZRANB3 / RFU, CUL4A / Fold change vs veh, CUL4A / RFU, CCNY / Fold change vs veh, CCNY / RFU, UFL1 / Fold change vs veh, UFL1 / RFU, COG3 / Fold change vs veh, COG3 / RFU, DIAPH2 / Fold change vs veh, DIAPH2 / RFU, SKA2 / Fold change vs veh, SKA2 / RFU, AFF3 / Fold change vs veh, AFF3 / RFU, LMF1 / Fold change vs veh, LMF1 / RFU, IPO11 / Fold change vs veh, IPO11 / RFU, DFFB / Fold change vs veh, DFFB / RFU, FOXP1 / Fold change vs veh, FOXP1 / RFU, CARD8 / Fold change vs veh, CARD8 / RFU, STRN3 / Fold change vs veh, STRN3 / RFU, ADK / Fold change vs veh, ADK / RFU, RASSF2 / Fold change vs veh, RASSF2 / RFU, WIPF1 / Fold change vs veh, WIPF1 / RFU, LARP1B / Fold change vs veh, LARP1B / RFU, RASA1 / Fold change vs veh, RASA1 / RFU, RB1 / Fold change vs veh, RB1 / RFU, PPFIA1 / Fold change vs veh, PPFIA1 / RFU, MAT2A / Fold change vs veh, MAT2A / RFU, CCT5 / Fold change vs veh, CCT5 / RFU, WDR92 / Fold change vs veh, WDR92 / RFU, CUX1 / Fold change vs veh, CUX1 / RFU, TTC7A / Fold change vs veh, TTC7A / RFU, TMEM135 / Fold change vs veh, TMEM135 / RFU, DEPTOR / Fold change vs veh, DEPTOR / RFU, CPM / Fold change vs veh, CPM / RFU, DNAJB6 / Fold change vs veh, DNAJB6 / RFU, CACNA2D3 / Fold change vs veh, CACNA2D3 / RFU, DTX4 / Fold change vs veh, DTX4 / RFU, TFCP2 / Fold change vs veh, TFCP2 / RFU, GMCL1 /// GMCL1P1 / Fold change vs veh, GMCL1 /// GMCL1P1 / RFU, AEBP2 / Fold change vs veh, AEBP2 / RFU, SNHG1 /// SNORD22 /// SNORD25 /// SNORD26 /// SNORD27 /// SNORD28 /// SNORD29 /// SNORD31 / Fold change vs veh, SNHG1 /// SNORD22 /// SNORD25 /// SNORD26 /// SNORD27 /// SNORD28 /// SNORD29 /// SNORD31 / Fold change (Aza/veh), C12orf56 (ProbeSet 11735607_a_at) / Fold change (ACY-1035/veh), C12orf56 (ProbeSet 11735607_a_at) / Fold change (Aza/veh), FGFR1OP (ProbeSet 11751329_s_at) / Fold change (ACY-1035/veh), FGFR1OP (ProbeSet 11751329_s_at) / Fold change (Aza/veh), VPS36 (ProbeSet 11739960_a_at) / Fold change (ACY-1035/veh), VPS36 (ProbeSet 11739960_a_at) / RFU SYPL1 (11715823_x_at) / Fold change /veh SYPL1 (11715823_x_at) / RFU IGFBP7 (11715501_s_at) / Fold change /veh IGFBP7 (11715501_s_at) / RFU REEP3 (11722064_at) / Fold change /veh REEP3 (11722064_at) / RFU IGLL1 (11728026_x_at) / Fold change /veh IGLL1 (11728026_x_at): dose or concentration left out as unconfirmed
Details: ProbeSet 11763895_x_at; LIST B

Nc1ccc(-c2cccs2)cc1NC(=O)c1ccc2c(c1)cc(C1CC1)n2CCN1CCOCC1 [ACY-1035]
Fold change vs veh, SNORA58: 0.89
